According to patent US9636418B2 (priority 2013, dated 2017):
Values joined by “and” are separate entries in the source; they are usually repeats but may differ in a detail not shown here. Equal entries are not always repeated. Where two headings read alike, the source gives them in different places.

Legend:
Experiment in all cases: cell-based
hNav1.7 [1] = target: T1, hNav1.7 (Homo sapiens, UniProt Q15858); conditions: IonWorks Quattro; read-out: IC50 Nav1.7
hNav1.5 [2] = target: T2, hNav1.5 (Homo sapiens, UniProt Q14524); conditions: IonWorks Quattro; read-out: IC50 Nav1.5
hNav1.4 [3] = target: T3, hNav1.4 (Homo sapiens, UniProt P35499); conditions: for IC50: IonWorks Quattro, read-out: IC50 Nav1.4; for Nav1.4/Nav1.7: ratio of IonWorks Quattro IC50 values
hNav1.3 = hNav1.3 (Homo sapiens, UniProt Q9NY46); conditions: IonWorks Quattro; read-out: IC50 Nav1.3
hNav1.7 [4] = target: T1, hNav1.7; assay type: cell-based; conditions: PatchXpress; * = at high concentrations compound would wash off slowly or not at all; read-out: PX hNav1.7 Tonic IC50
hNav1.5 [5] = target: T2, hNav1.5; conditions: for IC50: PatchXpress, * = at high concentrations compound would wash off slowly or not at all, read-out: PX hNav1.5 Tonic IC50
hNav1.4 [6] = target: T3, hNav1.4

T3 sequence (P35499 whole entry): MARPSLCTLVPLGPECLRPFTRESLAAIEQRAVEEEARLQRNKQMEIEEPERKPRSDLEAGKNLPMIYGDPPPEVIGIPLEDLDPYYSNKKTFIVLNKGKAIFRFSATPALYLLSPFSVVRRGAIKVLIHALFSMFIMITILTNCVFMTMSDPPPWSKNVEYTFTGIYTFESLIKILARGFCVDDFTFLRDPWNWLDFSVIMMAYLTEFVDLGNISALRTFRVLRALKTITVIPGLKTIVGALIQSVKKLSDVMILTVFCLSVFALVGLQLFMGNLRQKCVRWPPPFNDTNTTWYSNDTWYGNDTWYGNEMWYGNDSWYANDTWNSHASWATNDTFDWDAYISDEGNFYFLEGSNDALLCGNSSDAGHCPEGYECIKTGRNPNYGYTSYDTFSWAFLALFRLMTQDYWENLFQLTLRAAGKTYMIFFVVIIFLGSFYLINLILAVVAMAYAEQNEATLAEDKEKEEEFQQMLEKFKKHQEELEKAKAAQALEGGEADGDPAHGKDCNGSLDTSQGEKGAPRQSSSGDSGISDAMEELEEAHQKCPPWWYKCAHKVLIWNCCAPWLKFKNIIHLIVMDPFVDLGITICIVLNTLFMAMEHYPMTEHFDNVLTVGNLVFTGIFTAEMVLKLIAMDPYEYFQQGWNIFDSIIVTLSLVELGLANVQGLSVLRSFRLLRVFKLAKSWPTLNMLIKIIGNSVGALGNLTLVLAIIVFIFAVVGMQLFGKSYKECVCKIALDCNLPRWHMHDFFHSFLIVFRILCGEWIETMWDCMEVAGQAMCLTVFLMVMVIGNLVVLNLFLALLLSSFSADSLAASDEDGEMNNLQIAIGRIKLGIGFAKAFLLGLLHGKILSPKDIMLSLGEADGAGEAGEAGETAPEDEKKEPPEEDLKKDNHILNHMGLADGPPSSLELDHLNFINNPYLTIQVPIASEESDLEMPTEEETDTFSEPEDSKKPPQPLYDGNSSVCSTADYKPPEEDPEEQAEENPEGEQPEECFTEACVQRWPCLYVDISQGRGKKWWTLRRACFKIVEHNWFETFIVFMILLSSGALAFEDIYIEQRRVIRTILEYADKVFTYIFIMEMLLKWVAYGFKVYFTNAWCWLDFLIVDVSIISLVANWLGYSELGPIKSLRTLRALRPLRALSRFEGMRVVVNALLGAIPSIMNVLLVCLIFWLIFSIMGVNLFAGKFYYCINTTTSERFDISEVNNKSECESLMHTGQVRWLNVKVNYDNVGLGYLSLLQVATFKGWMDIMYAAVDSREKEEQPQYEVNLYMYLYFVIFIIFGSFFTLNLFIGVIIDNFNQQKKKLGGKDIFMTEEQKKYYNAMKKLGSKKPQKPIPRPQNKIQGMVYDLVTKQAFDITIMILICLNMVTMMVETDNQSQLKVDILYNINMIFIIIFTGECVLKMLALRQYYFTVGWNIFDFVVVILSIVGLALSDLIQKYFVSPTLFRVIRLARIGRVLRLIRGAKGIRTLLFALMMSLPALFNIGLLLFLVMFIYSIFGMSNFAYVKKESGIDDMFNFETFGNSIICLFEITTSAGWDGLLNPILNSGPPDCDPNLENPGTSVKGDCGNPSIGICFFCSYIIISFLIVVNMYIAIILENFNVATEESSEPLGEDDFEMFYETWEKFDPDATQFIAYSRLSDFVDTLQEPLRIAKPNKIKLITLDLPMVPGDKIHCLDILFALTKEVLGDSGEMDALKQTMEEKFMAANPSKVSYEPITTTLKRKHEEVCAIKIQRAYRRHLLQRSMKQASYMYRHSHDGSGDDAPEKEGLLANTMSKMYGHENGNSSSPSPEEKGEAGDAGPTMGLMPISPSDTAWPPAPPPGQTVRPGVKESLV
T1 sequence (Q15858 whole entry): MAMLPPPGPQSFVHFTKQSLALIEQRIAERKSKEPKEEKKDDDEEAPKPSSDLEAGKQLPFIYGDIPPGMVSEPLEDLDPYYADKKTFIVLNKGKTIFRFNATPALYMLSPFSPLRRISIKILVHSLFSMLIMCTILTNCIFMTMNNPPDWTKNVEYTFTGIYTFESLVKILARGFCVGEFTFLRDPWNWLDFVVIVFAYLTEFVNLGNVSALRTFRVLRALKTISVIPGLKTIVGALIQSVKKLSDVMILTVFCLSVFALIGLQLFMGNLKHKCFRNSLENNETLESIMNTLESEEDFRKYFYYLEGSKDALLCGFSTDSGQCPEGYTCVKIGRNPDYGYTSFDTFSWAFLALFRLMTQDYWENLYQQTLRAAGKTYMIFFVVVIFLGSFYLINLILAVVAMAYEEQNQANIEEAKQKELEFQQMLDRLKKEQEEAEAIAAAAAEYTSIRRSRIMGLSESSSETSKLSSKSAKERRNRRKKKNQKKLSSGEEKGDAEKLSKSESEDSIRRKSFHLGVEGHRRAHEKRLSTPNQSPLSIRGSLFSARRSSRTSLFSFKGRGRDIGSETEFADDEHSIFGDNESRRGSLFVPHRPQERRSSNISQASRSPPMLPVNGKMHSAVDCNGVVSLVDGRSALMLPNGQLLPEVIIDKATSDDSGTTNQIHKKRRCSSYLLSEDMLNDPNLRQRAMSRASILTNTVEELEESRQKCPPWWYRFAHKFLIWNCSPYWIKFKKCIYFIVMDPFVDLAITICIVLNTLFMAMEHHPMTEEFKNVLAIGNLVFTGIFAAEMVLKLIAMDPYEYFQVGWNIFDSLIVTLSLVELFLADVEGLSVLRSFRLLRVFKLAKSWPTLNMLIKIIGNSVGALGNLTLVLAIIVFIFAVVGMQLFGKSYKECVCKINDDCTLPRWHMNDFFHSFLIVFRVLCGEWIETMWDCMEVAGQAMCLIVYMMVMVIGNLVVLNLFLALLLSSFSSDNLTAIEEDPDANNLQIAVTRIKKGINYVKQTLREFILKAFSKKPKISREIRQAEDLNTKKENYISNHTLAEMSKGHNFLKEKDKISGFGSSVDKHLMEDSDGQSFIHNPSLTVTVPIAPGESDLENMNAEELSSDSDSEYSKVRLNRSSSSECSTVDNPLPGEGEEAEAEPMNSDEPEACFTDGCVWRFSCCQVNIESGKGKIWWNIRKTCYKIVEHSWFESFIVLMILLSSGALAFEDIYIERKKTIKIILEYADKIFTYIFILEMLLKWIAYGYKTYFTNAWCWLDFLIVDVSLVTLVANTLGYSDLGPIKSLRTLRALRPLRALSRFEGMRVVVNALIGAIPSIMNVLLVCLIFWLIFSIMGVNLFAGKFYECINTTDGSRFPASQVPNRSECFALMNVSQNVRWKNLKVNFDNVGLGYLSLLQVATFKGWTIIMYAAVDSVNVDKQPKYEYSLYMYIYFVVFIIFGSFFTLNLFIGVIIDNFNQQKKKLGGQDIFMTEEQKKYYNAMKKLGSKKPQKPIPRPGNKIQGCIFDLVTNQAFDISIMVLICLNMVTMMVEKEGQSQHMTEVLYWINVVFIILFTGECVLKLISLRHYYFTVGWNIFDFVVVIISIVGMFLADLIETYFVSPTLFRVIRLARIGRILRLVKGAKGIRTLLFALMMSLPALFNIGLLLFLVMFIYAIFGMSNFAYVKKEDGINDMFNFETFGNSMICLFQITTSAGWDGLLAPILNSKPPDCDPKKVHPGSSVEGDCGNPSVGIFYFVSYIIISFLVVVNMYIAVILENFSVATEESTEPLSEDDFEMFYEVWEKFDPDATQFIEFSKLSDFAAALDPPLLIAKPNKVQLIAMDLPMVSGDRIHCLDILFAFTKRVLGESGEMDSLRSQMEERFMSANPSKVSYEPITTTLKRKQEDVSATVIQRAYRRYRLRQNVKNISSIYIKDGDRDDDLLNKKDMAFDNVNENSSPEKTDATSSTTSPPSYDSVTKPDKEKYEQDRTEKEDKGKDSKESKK

SMILES	IC50 (hNav1.7 [1])	IC50 (hNav1.5 [2])	IC50 (hNav1.4 [3])	Nav1.4/Nav1.7 (hNav1.4 [3])	IC50 (hNav1.3)	IC50 (hNav1.7 [4])	IC50 (hNav1.5 [5])	IC50 (hNav1.4 [6]; PatchXpress, * = at high concentrations compound would wash off slowly or not at all, read-out: PX hNav1.4 Tonic IC50)	Nav1.4/Nav1.7 (hNav1.4 [6]; ratio of PX IC50 values)	Nav1.5/Nav1.7 (hNav1.5 [5]; ratio of PX IC50 values)
CC[C@H](C)[C@H](NC(=O)[C@@H](NC(=O)[C@H](CCCCN)NC(=O)[C@H](CCCNC(=N)N)NC(=O)[C@@H]1CSSC[C@@H]2NC(=O)[C@H](C)NC(=O)[C@H](CCCNC(=N)N)NC(=O)[C@H](CCCCN)NC(=O)[C@H](CO)NC(=O)[C@H](CC(=O)O)NC(=O)[C@@H]3CSSC[C@H](NC(=O)[C@H](CCC(=O)O)NC(=O)[C@H](CC(C)C)NC(=O)CNC(=O)[C@H](CCC(=O)O)NC(=O)[C@H](CSSC[C@H](NC(=O)[C@@H](N)Cc4ccc(O)cc4)C(=O)N[C@@H](CCC(N)=O)C(=O)N[C@@H](CCCCN)C(=O)N[C@@H](Cc4c[nH]c5ccccc45)C(=O)N[C@@H](CCSC)C(=O)N[C@@H](Cc4c[nH]c5ccccc45)C(=O)N[C@@H]([C@@H](C)O)C(=O)N3)NC2=O)C(=O)N[C@@H](CCCCN)C(=O)N[C@@H](CC(C)C)C(=O)N[C@@H](Cc2c[nH]c3ccccc23)C(=O)N1)[C@@H](C)CC)C(N)=O [compound 63]	0.36 µM	9.8 µM	> 5 µM	14	> 5 µM	0.007 µM	9.33 µM	–	–	–
CC[C@H](C)[C@H](NC(=O)[C@@H](NC(=O)[C@H](CCCCN)NC(=O)[C@H](CCCNC(=N)N)NC(=O)[C@@H]1CSSC[C@@H]2NC(=O)[C@H](C)NC(=O)[C@H](CCCNC(=N)N)NC(=O)[C@H](CCCCN)NC(=O)[C@H](CO)NC(=O)[C@H](CC(=O)O)NC(=O)[C@@H]3CSSC[C@H](NC(=O)[C@H](CC(=O)O)NC(=O)[C@H](CC(C)C)NC(=O)CNC(=O)[C@H](CCC(=O)O)NC(=O)[C@H](CSSC[C@H](NC(=O)[C@@H](N)Cc4ccc(O)cc4)C(=O)N[C@@H](CCC(N)=O)C(=O)N[C@@H](CCCCN)C(=O)N[C@@H](Cc4c[nH]c5ccccc45)C(=O)N[C@@H](CCSC)C(=O)N[C@@H](Cc4c[nH]c5ccccc45)C(=O)N[C@@H]([C@@H](C)O)C(=O)N3)NC2=O)C(=O)N[C@@H](CCCCN)C(=O)N[C@@H](CC(C)C)C(=O)N[C@@H](Cc2c[nH]c3ccccc23)C(=O)N1)[C@@H](C)CC)C(N)=O [compound 115]	0.09 µM	11.1 µM	> 5 µM	53	> 5 µM	0.749 µM	3.2 µM	7.6 µM	10	4
CSCC[C@@H]1NC(=O)[C@H](Cc2c[nH]c3ccccc23)NC(=O)[C@H](CCCCN)NC(=O)[C@H](CCC(N)=O)NC(=O)[C@@H](NC(=O)[C@@H](N)Cc2ccc(O)cc2)CSSC[C@@H]2NC(=O)[C@@H]3CSSC[C@@H](C(=O)N[C@@H](CCCNC(=N)N)C(=O)N[C@@H](CCCCN)C(=O)N[C@@H](Cc4ccc(O)cc4)C(=O)N[C@@H](CCC(=O)O)C(N)=O)NC(=O)[C@H](Cc4c[nH]c5ccccc45)NC(=O)[C@H](CC(C)C)NC(=O)[C@H](CCCCN)NC(=O)[C@H](CSSC[C@H](NC(=O)[C@H]([C@@H](C)O)NC(=O)[C@H](Cc4c[nH]c5ccccc45)NC1=O)C(=O)N[C@@H](CC(=O)O)C(=O)N[C@@H](CO)C(=O)N[C@@H](CCCCN)C(=O)N[C@@H](CCCNC(=N)N)C(=O)N[C@@H](C)C(=O)N3)NC(=O)[C@H](CCC(=O)O)NC(=O)[C@H](CC(C)C)NC(=O)CNC(=O)[C@H](CCC(=O)O)NC2=O [compound 245]	4.7 µM	> 5 µM	> 5 µM	–	> 5 µM	–	–	–	–	–
CCCC[C@@H]1NC(=O)[C@H](Cc2c[nH]c3ccccc23)NC(=O)[C@H](CCCCN)NC(=O)[C@H](CCC(N)=O)NC(=O)[C@@H](NC(=O)[C@@H](N)Cc2ccc(O)cc2)CSSC[C@@H]2NC(=O)[C@@H]3CSSC[C@@H](C(=O)N[C@@H](CCCNC(=N)N)C(=O)N[C@@H](CCCCN)C(=O)N[C@H](C(=O)N[C@H](C(N)=O)[C@@H](C)CC)[C@@H](C)CC)NC(=O)[C@H](Cc4c[nH]c5ccccc45)NC(=O)[C@H](CC(C)C)NC(=O)[C@H](CCCCN)NC(=O)[C@H](CSSC[C@H](NC(=O)[C@H](Cc4cn(CCCOCCOCCOCCOCCOCCOCCOCCOCCOCCOCCN)nn4)NC(=O)[C@H](Cc4c[nH]c5ccccc45)NC1=O)C(=O)N[C@@H](CC(=O)O)C(=O)N[C@@H](CO)C(=O)N[C@@H](CCCCN)C(=O)N[C@@H](CCCNC(=N)N)C(=O)N[C@@H](C)C(=O)N3)NC(=O)[C@H](CCCNC(=N)N)NC(=O)[C@H](CC(C)C)NC(=O)CNC(=O)[C@H](CCC(=O)O)NC2=O [compound 254]	6.4 µM	> 7 µM	> 7 µM	–	> 7 µM	–	–	–	–	–
CCCC[C@@H]1NC(=O)[C@H](Cc2c[nH]c3ccccc23)NC(=O)[C@H](CCCCN)NC(=O)[C@H](CCC(N)=O)NC(=O)[C@@H](NC(=O)[C@@H](N)Cc2ccc(O)cc2)CSSC[C@@H]2NC(=O)[C@@H]3CSSC[C@@H](C(=O)N[C@@H](CCCNC(=N)N)C(=O)N[C@@H](CCCCN)C(=O)N[C@H](C(=O)N[C@H](C(N)=O)[C@@H](C)CC)[C@@H](C)CC)NC(=O)[C@H](Cc4c[nH]c5ccccc45)NC(=O)[C@H](CC(C)C)NC(=O)[C@H](CCCCN)NC(=O)[C@H](CSSC[C@H](NC(=O)[C@H]([C@@H](C)O)NC(=O)[C@H](Cc4c[nH]c5ccccc45)NC1=O)C(=O)N[C@@H](CC(=O)O)C(=O)N[C@@H](CO)C(=O)N[C@@H](CCCCN)C(=O)N[C@@H](CCCNC(=N)N)C(=O)N[C@@H](C)C(=O)N3)NC(=O)[C@H](CCCNC(=N)N)NC(=O)[C@H](CC(C)C)NC(=O)CNC(=O)[C@H](CCC(=O)O)NC2=O [compound 272]	> 5 µM	> 5 µM	> 5 µM	–	> 5 µM	0.000586 µM	–	–	–	–
CCCC[C@@H]1NC(=O)[C@H](Cc2c[nH]c3ccccc23)NC(=O)[C@H](CCCCN)NC(=O)[C@H](CCC(N)=O)NC(=O)[C@@H](NC(=O)[C@@H](N)Cc2ccc(O)cc2)CSSC[C@@H]2NC(=O)[C@@H]3CSSC[C@@H](C(=O)N[C@@H](CCCNC(=N)N)C(=O)N[C@@H](CCCCN)C(=O)N[C@H](C(=O)N[C@H](C(N)=O)[C@@H](C)CC)[C@@H](C)CC)NC(=O)[C@H](Cc4c[nH]c5ccccc45)NC(=O)[C@H](CC(C)C)NC(=O)[C@H](CCCCN)NC(=O)[C@H](CSSC[C@H](NC(=O)[C@H]([C@@H](C)O)NC(=O)[C@H](Cc4c[nH]c5ccccc45)NC1=O)C(=O)N[C@@H](CC(=O)O)C(=O)N[C@@H](CO)C(=O)N[C@@H](CCCCN)C(=O)N[C@@H](CCCNC(=N)N)C(=O)N[C@@H](C)C(=O)N3)NC(=O)[C@H](CCC(=O)O)NC(=O)[C@H](CC(C)C)NC(=O)CNC(=O)[C@H](CCC(=O)O)NC2=O [compound 273]	0.19 µM	> 5 µM	> 5 µM	–	4.1 µM	–	–	–	–	–
CC[C@H](C)[C@H](NC(=O)[C@H](Cc1ccc(O)cc1)NC(=O)[C@H](CCCCN)NC(=O)[C@H](CCCNC(=N)N)NC(=O)[C@@H]1CSSC[C@@H]2NC(=O)[C@H](C)NC(=O)[C@H](CCCNC(=N)N)NC(=O)[C@H](CCCCN)NC(=O)[C@H](CO)NC(=O)[C@H](CC(=O)O)NC(=O)[C@@H]3CSSC[C@H](NC(=O)[C@H](CCCNC(=N)N)NC(=O)[C@H](CC(C)C)NC(=O)CNC(=O)[C@H](CCC(=O)O)NC(=O)[C@H](CSSC[C@H](NC(=O)[C@@H](N)CCC(=O)O)C(=O)N[C@@H](CCC(N)=O)C(=O)N[C@@H](CCCCN)C(=O)N[C@@H](Cc4c[nH]c5ccccc45)C(=O)N[C@@H](CCSC)C(=O)N[C@@H](Cc4c[nH]c5ccccc45)C(=O)N[C@@H]([C@@H](C)O)C(=O)N3)NC2=O)C(=O)N[C@@H](CCCCN)C(=O)N[C@@H](CC(C)C)C(=O)N[C@@H](Cc2c[nH]c3ccccc23)C(=O)N1)C(N)=O [compound 278]	0.046 µM	> 5 µM	0.7 µM	16	0.3 µM	–	–	–	–	–
CC[C@H](C)[C@H](NC(=O)[C@@H](NC(=O)[C@H](CCCCN)NC(=O)[C@H](CCCNC(=N)N)NC(=O)[C@@H]1CSSC[C@@H]2NC(=O)[C@H](C)NC(=O)[C@H](CCCNC(=N)N)NC(=O)[C@H](CCCCN)NC(=O)[C@H](CO)NC(=O)[C@H](CC(=O)O)NC(=O)[C@@H]3CSSC[C@H](NC(=O)[C@H](CCCNC(=N)N)NC(=O)[C@H](CC(C)C)NC(=O)CNC(=O)[C@H](CCC(=O)O)NC(=O)[C@H](CSSC[C@H](NC(=O)[C@@H](N)CCC(=O)O)C(=O)N[C@@H](CCC(N)=O)C(=O)N[C@@H](CCCCN)C(=O)N[C@@H](Cc4c[nH]c5ccccc45)C(=O)N[C@@H](CCSC)C(=O)N[C@@H](Cc4cccc5ccccc45)C(=O)N[C@@H]([C@@H](C)O)C(=O)N3)NC2=O)C(=O)N[C@@H](CCCCN)C(=O)N[C@@H](CC(C)C)C(=O)N[C@@H](Cc2c[nH]c3ccccc23)C(=O)N1)[C@@H](C)CC)C(N)=O [compound 281]	0.032 µM and 0.047 µM	> 5 µM	0.7 µM and 0.5 µM	–	0.4 µM and 0.5 µM	–	–	–	–	–
